Source: PMC2562352 (Journal of medicinal chemistry, 2008)

tested on: yellow fever virus; test: not given; format: cell-based, yellow fever virus (YFV 17D); conditions: not given

SMILES | antiviral activity vs. yellow fever virus (in words) | antiviral activity relative to parent compound M02 [times]
C/C(=N\NC(N)=O)c1ccc(NC(=O)Nc2nc(C)c(C(=O)NCc3ccc(Cl)cc3Cl)s2)cc1 [Compound 1, (E)-2-(3-(4-(1-(2-Carbamoylhydrazono)-ethyl)-phenyl)-ureido)-N-(2,4-dichlorobenzyl)-4-methylthiazole-5-carboxamide] | inactive | 
C/C(=N\NC(=N)N)c1ccc(NC(=O)Nc2nc(C)c(C(=O)NCc3ccc(Cl)cc3Cl)s2)cc1 [Compound 2, (E)-2-(3-(4-(1-(2-Carbamimidoylhydrazono)-ethyl)-phenyl)-ureido)-N-(2,4-dichlorobenzyl)-4-methylthiazole-5-carboxamide] | active | 
CC(=O)c1ccc(NC(=O)Nc2nc(C)c(C(=O)O)s2)cc1 [Compound 4, 2-[3-(4-Acetylphenyl)-ureido]-4-methylthiazole-5-carboxylic Acid] | lost its activity | 
CC(=O)c1ccc(NC(=O)Nc2nc(C)c(C(=O)NCc3ccc(Cl)cc3Cl)s2)cc1 [Compound 7, 2-(3-(4-Acetylphenyl)-ureido)-N-(2,4-dichlorobenzyl)-4-methylthiazole-5-carboxamide] | inactive | 
CC(=O)c1ccc(NC(=O)Nc2nc(C)c(C(=O)NCc3ccc(Cl)c(Cl)c3)s2)cc1 [Compound 8, 2-(3-(4-Acetylphenyl)-ureido)-N-(3,4-dichlorobenzyl)-4-methylthiazole-5-carboxamide] | active | 
Cc1nc(-n2nc(-c3ccccc3)cc2-c2ccccc2)sc1C(=O)NCc1ccc(Cl)c(Cl)c1 [Compound 11, N-(3,4-Dichlorobenzyl)-2-(3,5-diphenyl-1H-pyrazol-1-yl)-4-methylthiazole-5-carboxamide] |  | 10
COC(=O)c1sc(N(Cc2ccc(C(C)=O)cc2)Cc2ccc(C(C)=O)cc2)nc1C [Compound 18, Methyl 2-(Bis(4-acetylbenzyl)amino)-4-methylthiazole-5-carboxylate] | active | 
Nc1ccc(SCc2csc(-c3cccnc3)n2)cc1 [Compound 28] | lose antiviral activity | 
Nc1ccccc1SCc1csc(-c2cccnc2)n1 [Compound 29] | lose antiviral activity | 
Clc1ccc(-c2nc(CSc3cccc(Cl)c3)cs2)cc1 [Compound 30] | lose antiviral activity | 
COC(=O)c1sc(-c2ccc(Cl)cc2)nc1C [Compound 32, 2-(4-Chlorophenyl)-4-methyl-thiazole-5-carboxylic Acid Methyl Ester] | inactive | 

tested on: BHK cells; test: Cell viability assay; conditions: CC50 compared with M02

SMILES | cytotoxicity relative to parent compound M02 (times less) [times]
Cc1nc(-n2nc(-c3ccccc3)cc2-c2ccccc2)sc1C(=O)NCc1ccc(Cl)c(Cl)c1 [Compound 11, N-(3,4-Dichlorobenzyl)-2-(3,5-diphenyl-1H-pyrazol-1-yl)-4-methylthiazole-5-carboxamide] | 2.7
